From US20250170114A1, “METHODS OF TREATMENT USING T-TYPE CALCIUM CHANNEL MODULATORS” (Praxis Precision Medicines, Inc., priority 2022, published 2025)

Test system: participants with ET
Assay: Phase 2 trial: treatment-emergent adverse events (TEAEs)
Assay type: in vivo
Details: for SOC Nervous System Disorders / SOC Psychiatric Disorders / SOC Vascular Disorders / Any TEAE / PT Cognitive disorder / PT Constipation / PT Dizziness / PT Fatigue / PT Insomnia / SOC Gastrointestinal Disorders / SOC General Disorders and Administration Site Conditions / SOC Musculoskeletal and Connective Tissue Disorders: Part B
Excerpt: Part A of the clinical trial was open-label and assessed the safety and tolerability of the study drug, as well as the overall magnitude and pattern of change in ET severity.
Part B of the clinical trial consisted of both an open-label titration phase and a randomized, double-blind, placebo-controlled withdrawal phase. Part B assessed the safety and tolerability of the study drug, as well as the overall magnitude and pattern of change in ET severity and the duration of that effect. […] In the randomized, double-blind, placebo-controlled withdrawal phase, participants were either maintained on their final open-label dose or switched to placebo for an additional 14 days (Days 43 to 56).
Key safety measures included clinical laboratory evaluations, 12-lead ECG, C-SSRS, and vital signs. Key efficacy assessments included the TETRAS Performance subscale, TETRAS Upper Limb using accelerometry, CGI, and PGI-C. Blood samples were obtained for the determination of study drug plasma concentrations using a validated bioanalytical method and may also be used for method development and/or metabolite characterization.
On Day 1, participants received a 20 mg dose of study drug on an empty stomach (at least 1 hour before breakfast). Participants remained in a clinical setting under medical observation for approximately 6 hours. TETRAS Performance assessments were performed before dosing and 6 hours (±2) post-dose. For dosing on Day 2 through Day 41, participants were instructed to dose QAM at least 1 hour before breakfast at home. Participants continued taking study drug 20 mg QAM at home through Day 3. […] On Day 4, participants escalated to 40 mg QAM through Day 7, when they returned to the clinic for safety assessments and efficacy testing. On Day 8, participants escalated to 60 mg QAM through Day 14. […] On Day 15, participants escalated to 80 mg QAM through Day 21, when they returned to the clinic for safety assessments and efficacy testing. On Day 22, participants escalated to 100 mg QAM through Day 28. […] On Day 29, participants escalated to 120 mg QAM through Day 42, when they returned to the clinic for safety assessments and efficacy testing. The dose on Day 42 was taken in the clinic. On Day 35, participants received a telephone call from site staff to inquire about AEs and concomitant medications. On Day 41, participants completed a TETRAS Performance Upper Limb assessment via a telehealth visit. […] Participants could only change to a lower dose level once, and no dose changes were allowed to occur after Day 36.
In both phases, key safety measures included clinical laboratory evaluations, 12-lead ECG, C-SSRS, and vital signs. Key efficacy assessments included the TETRAS Performance subscale, TETRAS Upper Limb using accelerometry, CGI, PGI-C, TETRAS ADL Subscale, QUEST, BDI-II, and BAI. Blood samples were obtained for the determination of study drug and metabolite plasma concentrations.

[1] = open-label titration phase of Part B
[2] = randomized-withdrawal phase of Part B, participants receiving study drug

Q: How did the “SOC Nervous System Disorders” value (40 mg, N = 15) turn out when CC(C)(C)NC(=O)CN1CCC(CNC(=O)c2cc(F)cc(Cl)c2)CC1.Cl [Study drug] was run?
A: 4 n (%)

Q: And the “SOC Psychiatric Disorders” value (40 mg, N = 15)?
A: 2 n (%)

Q: What about the “SOC Vascular Disorders” value (40 mg, N = 15) of the same compound?
A: 0 n (%)

Q: What about the “Any TEAE” value (60 mg, N = 12) of the same compound?
A: 8 n (%)

Q: What about the “PT Cognitive disorder” value (60 mg, N = 12) of the same compound?
A: 1 n (%)

Q: And the “PT Constipation” value (60 mg, N = 12)?
A: 0 n (%)

Q: What about the “PT Dizziness” value (60 mg, N = 12) of the same compound?
A: 2 n (%)

Q: And the “PT Fatigue” value (60 mg, N = 12)?
A: 2 n (%)

Q: And the “PT Insomnia” value (60 mg, N = 12)?
A: 0 n (%)

Q: And the “SOC Gastrointestinal Disorders” value (60 mg, N = 12)?
A: 0 n (%)

Q: What about the “SOC General Disorders and Administration Site Conditions” value (60 mg, N = 12) of the same compound?
A: 3 n (%)

Q: And the “SOC Musculoskeletal and Connective Tissue Disorders” value (60 mg, N = 12)?
A: 2 n (%)

Q: What about the “SOC Nervous System Disorders” value (60 mg, N = 12) of the same compound?
A: 8 n (%)

Q: And the “SOC Psychiatric Disorders” value (60 mg, N = 12)?
A: 1 n (%)

Q: And the “SOC Vascular Disorders” value (60 mg, N = 12)?
A: 2 n (%)

Q: And the “Any TEAE” value (80 mg, N = 10)?
A: 4 (40.0) n (%)

Q: What about the “PT Cognitive disorder” value (80 mg, N = 10) of the same compound?
A: 0 n (%)

Q: What about the “PT Constipation” value (80 mg, N = 10) of the same compound?
A: 1 (10.0) n (%)

Q: And the “PT Dizziness” value (80 mg, N = 10)?
A: 0 n (%)

Q: What about the “PT Fatigue” value (80 mg, N = 10) of the same compound?
A: 0 n (%)

Q: What about the “PT Insomnia” value (80 mg, N = 10) of the same compound?
A: 0 n (%)

Q: What about the “SOC Gastrointestinal Disorders” value (80 mg, N = 10) of the same compound?
A: 2 (20.0) n (%)

Q: And the “SOC General Disorders and Administration Site Conditions” value (80 mg, N = 10)?
A: 0 n (%)

Q: And the “SOC Musculoskeletal and Connective Tissue Disorders” value (80 mg, N = 10)?
A: 0 n (%)

Q: What about the “SOC Nervous System Disorders” value (80 mg, N = 10) of the same compound?
A: 2 (20.0) n (%)

Q: And the “SOC Psychiatric Disorders” value (80 mg, N = 10)?
A: 0 n (%)

Q: And the “SOC Vascular Disorders” value (80 mg, N = 10)?
A: 0 n (%)

Q: What about the “Any TEAE” value (100 mg, N = 9) of the same compound?
A: 1 (11.1) n (%)

Q: And the “PT Cognitive disorder” value (100 mg, N = 9)?
A: 0 n (%)

Q: What about the “PT Constipation” value (100 mg, N = 9) of the same compound?
A: 1 (11.1) n (%)

Q: What about the “PT Dizziness” value (100 mg, N = 9) of the same compound?
A: 0 n (%)

Q: What about the “PT Fatigue” value (100 mg, N = 9) of the same compound?
A: 0 n (%)

Q: What about the “PT Insomnia” value (100 mg, N = 9) of the same compound?
A: 0 n (%)

Q: What about the “SOC Gastrointestinal Disorders” value (100 mg, N = 9) of the same compound?
A: 1 (11.1) n (%)

Q: What about the “SOC General Disorders and Administration Site Conditions” value (100 mg, N = 9) of the same compound?
A: 0 n (%)

Q: What about the “SOC Musculoskeletal and Connective Tissue Disorders” value (100 mg, N = 9) of the same compound?
A: 0 n (%)

Q: And the “SOC Nervous System Disorders” value (100 mg, N = 9)?
A: 0 n (%)

Q: And the “SOC Psychiatric Disorders” value (100 mg, N = 9)?
A: 0 n (%)

Q: And the “SOC Vascular Disorders” value (100 mg, N = 9)?
A: 0 n (%)

Q: And the “Any TEAE” value (120 mg, N = 9)?
A: 3 (33.3) n (%)

Q: What about the “PT Cognitive disorder” value (120 mg, N = 9) of the same compound?
A: 0 n (%)

Q: What about the “PT Constipation” value (120 mg, N = 9) of the same compound?
A: 1 (11.1) n (%)

Q: What about the “PT Dizziness” value (120 mg, N = 9) of the same compound?
A: 0 n (%)

Q: What about the “PT Fatigue” value (120 mg, N = 9) of the same compound?
A: 0 n (%)

Q: What about the “PT Insomnia” value (120 mg, N = 9) of the same compound?
A: 0 n (%)

Q: And the “SOC Gastrointestinal Disorders” value (120 mg, N = 9)?
A: 1 (11.1) n (%)

Q: And the “SOC General Disorders and Administration Site Conditions” value (120 mg, N = 9)?
A: 0 n (%)

Q: What about the “SOC Musculoskeletal and Connective Tissue Disorders” value (120 mg, N = 9) of the same compound?
A: 0 n (%)

Q: What about the “SOC Nervous System Disorders” value (120 mg, N = 9) of the same compound?
A: 1 (11.1) n (%)

Q: What about the “SOC Psychiatric Disorders” value (120 mg, N = 9) of the same compound?
A: 1 (11.1) n (%)

Q: And the “SOC Vascular Disorders” value (120 mg, N = 9)?
A: 0 n (%)

Q: And the “Any TEAE” value (Overall, N = 17)?
A: 15 n (%)

Q: What about the “PT Cognitive disorder” value (Overall, N = 17) of the same compound?
A: 4 n (%)

Q: And the “PT Constipation” value (Overall, N = 17)?
A: 6 n (%)

Q: And the “PT Dizziness” value (Overall, N = 17)?
A: 6 n (%)

Q: And the “PT Fatigue” value (Overall, N = 17)?
A: 3 n (%)

Q: And the “PT Insomnia” value (Overall, N = 17)?
A: 3 n (%)

Q: And the “SOC Gastrointestinal Disorders” value (Overall, N = 17)?
A: 8 n (%)

Q: What about the “SOC General Disorders and Administration Site Conditions” value (Overall, N = 17) of the same compound?
A: 5 n (%)

Q: What about the “SOC Musculoskeletal and Connective Tissue Disorders” value (Overall, N = 17) of the same compound?
A: 3 n (%)

Q: And the “SOC Nervous System Disorders” value (Overall, N = 17)?
A: 12 n (%)

Q: And the “SOC Psychiatric Disorders” value (Overall, N = 17)?
A: 4 n (%)

Q: And the “SOC Vascular Disorders” value (Overall, N = 17)?
A: 2 n (%)

Q: What about the “severity of treatment emergent adverse events (TEAEs)” value (Phase 2 trial overall) of the same compound?
A: mild to moderate

Q: What about the “discontinuation of participants during the titration period” value (accelerated titration regimen) of the same compound?
A: a third

Q: And the “overall safety and tolerability” value (doses up to 120 mg)?
A: generally safe and well tolerated

Q: And the “Drug-related TEAE cognitive disorder” value [1]?
A: 4 participants

Q: And the “Drug-related TEAE dizziness” value [1]?
A: 6 participants

Q: And the “Drug-related TEAE paraesthesia” value [1]?
A: 2 participants

Q: What about the “participants experiencing TEAEs considered related to study drug” value [1] of the same compound?
A: 70.6%

Q: And the “participants who experienced at least 1 TEAE” value [1]?
A: 88.2%

Q: What about the “serious adverse event (SAE) experienced” value (open-label titration phase of Part B, considered unrelated to study drug) of the same compound?
A: One mild SAE of cyst

Q: And the “participants who experienced TEAEs” value (randomized withdrawal phase of Part B, study drug group)?
A: 16.7%

Q: And the “ongoing AE constipation that had emerged during open-label titration” value [2]?
A: 3 participants

Q: And the “ongoing AE photosensitivity/photophobia that had emerged during open-label titration” value [2]?
A: 2 participants
